Results on two compounds are retold here after patent publication US20040063165A1, “Light-activated in vitro assay process for luciferase bioluminescence” (priority 2003, published 2004).

For assay [1], the system named is luciferase. Description: UV uncaging of caged ATP to trigger luciferase chemiluminescent reaction (Example 1). The conditions noted are these: 1 millisecond UV pulse, Xenon lamp; pulse power varied 40, 60, 80 mJ per pulse; ATP the limiting factor. It counts as biochemical. The protocol: In this experiment, caged ATP was utilized to control the reaction. […] Reagents:
Lyophilized luciferase/lyophilized D-Luciferin were dissolved in Tricine buffer [50 mM N-tris(hydroxymethyl)methylglycine, adjusted with NaOH to pH 7.8, Lot 1418] both supplied by Kikkoman as assay kit, CheckLite HS Plus, Catalog # 60342).
5 mM Mg citrate in phosphate buffered saline (PBS, pH 7.4)
Caged ATP (p-(1-(4,5-dimethoxy-2-nitrophenyl)ether, disodium salt-caged adenosine-5-triphosphate) in methanol, 5 mg in 300 μL (Molecular probes, Catalog # A-1049).
In a total reaction volume of 20 μL, the following were mixed in a suitable reaction cell
10 μL of Luciferase/D-Luciferin solution mix,
5 μL of 5 mM Mg Citrate in PBS
5 μL of caged ATP solution.

Assay [2] deals with Firefly luciferase enzyme. Conditions: 1 millisecond UV pulse, Xenon lamp; pulse power varied 40, 60, 80 mJ per pulse; D-Luciferin the limiting factor.
Procedure: In this experiment, caged D-Luciferin was utilized to control the reaction.
Functional D-Luciferin was delivered to the reaction from caged D-Luciferin upon exposure of the reaction components to a pulse of UV light with suitable power.
Firefly luciferase enzyme dissolved in Tricine buffer pH 7.8 (50 mM N-Tris (hydroxymethyl) methylglycine) adjusted with NaOH, supplied by Kikkoman Catalog LUC T
5 mM Mg citrate in PBS, pH 7.4-
100 mM ATP solution, pH 7.5 (Amersham Pharmacia, Catalog No. 272056).
In a total reaction volume of 25 μL, the following components were added as solutions to a suitable cell:
10 μL of luciferase solution
5 μL of 5 mM Mg citrate in PBS
5 μL of 1 mM ATP solution
5 μL caged D-Luciferin solution.
The cell with the components was exposed to a pulse of UV (1 millisecond_pulse by a Xenon Lamp, Rapp Optoelectronic). The power of the UV pulse was varied (40, 60, 80 mJ per pulse).

Turning to `COc1cc(C(C)OP(=O)([O-])OP(=O)(O)OP(=O)([O-])OCC2OC(n3cnc4c(N)ncnc43)C(O)C2O)c([N+](=O)[O-])cc1OC.[Na+].[Na+]` (centres unmarked) [caged ATP, p-(1-(4,5-dimethoxy-2-nitrophenyl)ether, disodium salt-cagedadenosine-5-triphosphate)], the “amount of light released from the reaction” value in assay [1] was “increased with the increase of the UV pulse power”.

For “1-(4,5-dimethoxy-2-nitrophenyl)ethyl ester—caged D-luciferin”, in assay [2], the “amount of light released from the reaction” value is “increased with the increase of the UV pulse power”.
